A value given as a limit tells only on which side of the number the result lay.

One experiment deals with T1, rat NaPi-2b (Rattus norvegicus, UniProt Q9JJ09).
T1 construct: expressed in transfected cells; host or cells: Xenopus oocytes injected with cRNA
T1 sequence (Q9JJ09 1-695): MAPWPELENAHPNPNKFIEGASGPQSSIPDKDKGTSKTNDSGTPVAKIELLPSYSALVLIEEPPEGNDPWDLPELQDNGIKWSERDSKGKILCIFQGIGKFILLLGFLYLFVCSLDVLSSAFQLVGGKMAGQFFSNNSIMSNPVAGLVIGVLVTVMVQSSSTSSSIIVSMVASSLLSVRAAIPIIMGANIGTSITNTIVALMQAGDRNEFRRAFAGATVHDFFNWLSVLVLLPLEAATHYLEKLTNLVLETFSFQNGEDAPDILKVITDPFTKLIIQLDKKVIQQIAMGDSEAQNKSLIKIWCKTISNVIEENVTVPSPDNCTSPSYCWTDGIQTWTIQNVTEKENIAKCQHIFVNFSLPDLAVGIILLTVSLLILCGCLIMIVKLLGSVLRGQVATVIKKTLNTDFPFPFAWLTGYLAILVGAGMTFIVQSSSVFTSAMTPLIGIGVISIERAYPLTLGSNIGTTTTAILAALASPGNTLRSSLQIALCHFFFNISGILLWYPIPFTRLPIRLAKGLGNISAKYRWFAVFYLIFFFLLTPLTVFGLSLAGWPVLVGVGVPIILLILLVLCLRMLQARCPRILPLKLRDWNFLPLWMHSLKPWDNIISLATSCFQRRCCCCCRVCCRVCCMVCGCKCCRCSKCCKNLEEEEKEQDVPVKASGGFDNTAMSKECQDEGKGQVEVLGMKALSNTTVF
Briefly: Sodium-dependent phosphate uptake of Xenopus oocytes which expressed NaPi-2b (32P). It counts as cell-based. Particulars: Xenopus oocytes expressing rat NaPi-2b, 32P radioactive phosphorus; read-out: IC50 (phosphate uptake inhibitory activity). The procedure, abridged:
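Inhibition at 300 μM and 100 μM was read off one inhibition curve of 32P phosphate uptake. Uptake was measured in Xenopus oocytes cultured 2 days after injection of cRNA for cloned rat NaPi-2b.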
As for `O=C(Nc1ccc(Br)cc1C(=O)N/N=C/c1ccc(F)cc1)c1cccnc1` [Compound 173, N-[4-Bromo-2-(4-fluoro-benzylidene-hydrazinocarbonyl)-phenyl]-nicotinamide], the IC50 amounted to 7.4 µM. The same measure, in the same setting: the result for `COc1cccc(/C=N/NC(=O)c2cc(Cl)ccc2NC(=O)c2cccc(CN(CCO)CCO)c2)c1` [Compound 408, 3-{[Bis-(2-hydroxy-ethyl)-amino]-methyl}-N-[4-chloro-2-(3-methoxy-benzylidene-hydrazinocarbonyl)-phenyl]-benzamide] reads 0.69 µM. With `COc1cccc(/C=N/NC(=O)c2ccccc2NC(=O)c2ccc(OC)c(OC)c2)c1` [Compound 5, 3,4-Dimethoxy-N-[2-(3-methoxy-benzylidene-hydrazinocarbonyl)-phenyl]-benzamide], the half-maximal inhibitory concentration (IC50) is 3.31 µM.

On to `O=C(Nc1ccc(OCCCCF)cc1C(=O)N/N=C/c1ccc(Cl)c(C(F)(F)F)c1)c1cccc(CSCCO)c1` [Compound 1054, N-[2-(4-Chloro-3-trifluoromethyl-benzylidene-hydrazinocarbonyl)-4-(4-fluoro-butoxy)-phenyl]-3-(2-hydroxy-ethylsulfanylmethyl)-benzamide], for which the IC50 is less than 1 µM.

On to `Cc1cc(/C=N/NC(=O)c2ccccc2NC(=O)c2ccccc2F)ccc1O` [Compound 45, 2-Fluoro-N-[2-(4-hydroxy-3-methyl-benzylidene-hydrazinocarbonyl)-phenyl]-benzamide], for which the concentration for half-maximal inhibition (IC50) stood at 26.1 µM. In the case of `COc1ccc(C(=O)Nc2ccc(Cl)cc2C(=O)N/N=C/c2cccc(F)c2)cc1OC` [Compound 65, N-[4-Chloro-2-(3-fluoro-benzylidene-hydrazinocarbonyl)-phenyl]-3,4-dimethoxy-benzamide], the IC50 is 1.29 µM. Same read-out and setting: the result for `COc1ccc(NC(=O)c2ccc(OC)c(OC)c2)c(C(=O)N/N=C/c2cccc(F)c2)c1` [Compound 141, N-[2-(3-Fluoro-benzylidene-hydrazinocarbonyl)-4-methoxy-phenyl]-3,4-dimethoxy-benzamide] reads 5.78 µM; that for `O=C(Nc1ccc(N2CCCC2)cc1C(=O)N/N=C/c1ccc(Cl)c(C(F)(F)F)c1)c1cccc(CSCCO)c1` [Compound 920, N-[2-(4-Chloro-3-trifluoromethyl-benzylidene-hydrazinocarbonyl)-4-pyrrolidin-1-yl-phenyl]-3-(2-hydroxy-ethylsulfanylmethyl)-benzamide], less than 1 µM; that for `CN(CCO)Cc1ccc(C(=O)Nc2ccc(Cl)cc2C(=O)N/N=C/c2ccc(O)cc2)cc1` [Compound 421, N-[4-Chloro-2-(4-hydroxy-benzylidene-hydrazinocarbonyl)-phenyl]-4-{[(2-hydroxy-ethyl)-methyl-amino]-methyl}-benzamide], 29.6 µM. For the compound `Cc1cccc(/C=N/NC(=O)c2ccccc2NC(=O)c2ccncc2)c1` [Compound 136, N-[2-(3-Methyl-benzylidene-hydrazinocarbonyl)-phenyl]-isonicotinamide], the IC50 turned out to be 4.52 µM.

For `Cc1ccc(/C=N/NC(=O)c2cc(Br)ccc2NC(=O)c2ccc(CN3CCC(CCO)CC3)cc2)cc1C` [Compound 340, N-[4-Bromo-2-(3,4-dimethyl-benzylidene-hydrazinocarbonyl)-phenyl]-4-[4-(2-hydroxy-ethyl)-piperidin-1-ylmethyl]-benzamide], the IC50 amounted to 8.41 µM. Same read-out and setting: with `CCN(CCO)Cc1cccc(C(=O)Nc2ccc(Cl)cc2C(=O)N/N=C/c2cccc(F)c2)c1` [Compound 422, N-[4-Chloro-2-(3-fluoro-benzylidene-hydrazinocarbonyl)-phenyl]-3-{[ethyl-(2-hydroxy-ethyl)-amino]-methyl}-benzamide] the figure was 1.15 µM. On the same count and under the same terms, the result for `O=C(Nc1sccc1C(=O)N/N=C/c1cccc(F)c1)c1cccc(CSCCCO)c1` [Compound 661, N-[3-(3-Fluoro-benzylidene-hydrazinocarbonyl)-thiophen-2-yl]-3-(3-hydroxy-propylsulfanylmethyl)-benzamide] reads less than 10 µM; that for `COCCOc1cc(NC(=O)c2cccc(CSCC(O)CO)c2)c(C(=O)N/N=C/c2ccc(Cl)c(C(F)(F)F)c2)cc1OCCOC` (stereo not shown) [Compound 1016, N-[2-(4-Chloro-3-trifluoromethyl-benzylidene-hydrazinocarbonyl)-4,5-bis-(2-methoxy-ethoxy)-phenyl]-3-(2,3-dihydroxy-propylsulfanylmethyl)-benzamide], 9.23 µM. Take `Cc1cccc(/C=N/NC(=O)c2cc(Br)ccc2NC(=O)c2ccc(CNCCN3CCOCC3)cc2)c1` [Compound 283, N-[4-Bromo-2-(3-methyl-benzylidene-hydrazinocarbonyl)-phenyl]-4-[(2-morpholin-4-yl-ethylamino)-methyl]-benzamide]: the half-maximal inhibitory concentration (IC50) is 22.4 µM.

For `O=C(Nc1sc2c(c1C(=O)N/N=C/c1ccc(Cl)c(C(F)(F)F)c1)CCCC2)c1cccc(CN2CCC(N3CCCCC3)CC2)c1` [Compound 619, 3-[1,4′]Bipiperidinyl-1′-ylmethyl-N-[3-(4-chloro-3-trifluoromethyl-benzylidene-hydrazinocarbonyl)-4,5,6,7-tetrahydro-benzo[b]thiophen-2-yl]-benzamide], the IC50 is less than 3 µM. Take `COc1ccc(C(=O)Nc2ccc(Cl)cc2C(=O)N/N=C/c2cccc(O)c2)cc1OC` [Compound 69, N-[4-Chloro-2-(3-hydroxy-benzylidene-hydrazinocarbonyl)-phenyl]-3,4-dimethoxy-benzamide]: the IC50 was 3.93 µM. As for `CN(CCO)Cc1ccc(C(=O)Nc2ccc(Cl)cc2C(=O)N/N=C/c2ccc(Cl)c(C(F)(F)F)c2)cc1` [Compound 417, N-[4-Chloro-2-(4-chloro-3-trifluoromethyl-benzylidene-hydrazinocarbonyl)-phenyl]-4-{[(2-hydroxy-ethyl)-methyl-amino]-methyl}-benzamide], the IC50 is less than 3 µM.

For `O=C(Nc1ccc(Br)cc1C(=O)N/N=C/c1cccc(OCCO)c1)c1ccncc1` [Compound 350, N-{4-Bromo-2-[3-(2-hydroxy-ethoxy)-benzylidene-hydrazinocarbonyl]-phenyl}-isonicotinamide], the half-inhibitory concentration (IC50) stood at 25.3 µM.

The same experiment, now with this note: phosphate uptake, oocytes expressing rat NaPi-2b; 300 μM, determined from inhibition curve.
In turn, `CCN(CC)Cc1cccc(C(=O)Nc2sc(CN3CCCCC3)c(C)c2C(=O)N/N=C/c2ccc(OC)cc2)c1` [Compound 957, 3-Diethylaminomethyl-N-[3-(4-methoxy-benzylidene-hydrazinocarbonyl)-4-methyl-5-piperidin-1-ylmethyl-thiophen-2-yl]-benzamide] had an inhibition at 300 µM of 54.9%. As for `CN(CCCCCCN(C)Cc1cccc(C(=O)Nc2ccc(Cl)cc2C(=O)N/N=C/c2cccc(F)c2)c1)Cc1cccc(C(=O)Nc2ccc(Cl)cc2C(=O)N/N=C/c2cccc(F)c2)c1` [Compound 704, N1-[4-Chloro-2-({2-[(E)-1-(3-fluorophenyl)methylidene]hydrazino}carbonyl}phenyl}-3-{[{6-[(3-{[4-chloro-2-({2-[(E)-1-(3-fluorophenyl)methylidene]hydrazino}carbonyl}-anilino}carbonyl}benzyl}(methyl)amino)hexyl)(methyl)amino]methyl]-benzamide], at 300 µM the inhibition was 46.6%. `CCN(CC)CCN(C)Cc1cccc(C(=O)Nc2c(C)csc2C(=O)N/N=C/c2cccc(F)c2)c1` [Compound 529, 3-{[(2-Diethylamino-ethyl)-methyl-amino]-methyl}-N-[2-(3-fluoro-benzylidene-hydrazinocarbonyl)-4-methyl-thiophen-3-yl]-benzamide] registered an inhibition at 300 µM of 81%.
